Assay results from patent publication US20080248008A1, “Inhibitors of Protein Kinase a Anchoring” (priority 2004, published 2008).
“Also recorded” adds a separate entry of the source.

Key:
[1] = system: mice with MAIDS; experiment: T cell proliferative response after in vivo treatment of mice with murine AIDS; conditions: 75 mg/kg/day intraperitoneal, 10 days
Method: Rad-LS infected mice with MAIDS (10-12 weeks postinfection) were treated with MEME3-Arg11 in doses corresponding to those used for other bioactive peptides in studies in mice. Parenteral administration was accomplished by injecting intraperitoneally peptide formulated in PBS. Thus, MAIDS mice were injected with vehicle (phosphate buffered saline, PBS, Ctr.) or treated with MEME3-Arg11 in PBS (M3) by intraperitoneal injection (75 mg/kg/day administered once daily) for 10 days (left panel). In parallel, healthy, uninfected mice were injected with PBS (Ctr.) or MEME3-Arg11 in PBS (M3) (right panel). Subsequently, T cell proliferative responses were assessed in vitro in a mixed population of unsorted lymph node mononuclear cells from treated and untreated animals by [^3H]-thymidine incorporation. T cell activation was accomplished in all samples by cross-ligation of anti-CD3 (mAb 2C11; 4 µg/ml). Cells were cultured for 72 h during which MEME3-Arg11 was added back. [^3H]-thymidine was included for the last 4 hours.

[2] = target: PKA-RIα (Homo sapiens, UniProt P10644); experiment: Immunofluorescence of PKA-RIα localisation in human T cells; type: cell-based; parameters: endogenous in cells; host or cells: human peripheral blood CD3+ T cells; conditions: 5 μM
Method: Immunofluorescence analysis of cells was performed as previously described (Collas, P. et al., 1996, J. Cell Biol. 135, 1715-1725). RI was detected by using an anti-RI monoclonal antibody (Transduction Laboratories) as a primary antibody at a […] and Alexa-488 as a secondary antibody (1:600, Goat anti Mouse IgGs, Molecular Probes). Immunofluorescence was performed on Y1 cells attached to collagen/fibronectin coated coverslips. Mitochondria were stained using MitoTracker Red CMXRos (Molecular Probes) in fresh medium with incubation at 37° C. for 30 min prior to cell fixation. All cells were washed in PBS, fixed with 3% paraformaldehyde and permeabilised using 0.1% Triton X-100. Proteins were blocked in 2% BSA/PBST prior to antibody labeling. Primary and secondary antibodies were used at a 1:200 dilution in BSA/PBST and incubated for 30 min. DNA was counterstained using TO-PRO 3 (Molecular Probes) at a concentration of 1 μM. […] Alternatively, fluorescently labeled cells were examined using a Leica TCS SP1 confocal fluorescence microscope (Leica, Heidelberg, Germany) equipped with an Ar (488 nm) and two He/Ne (543 and 633 nm) laser lines. […]
Isolated human peripheral blood T cells were treated with MEME3-Arg11 peptide at different concentrations, and the location of PKARIα determined by immunofluorescence.

[3] = target: T1, RIIα (Mus musculus, UniProt P12367); experiment: Fluorescence polarization, dissociation constant for RII; type: binding; conditions: qualitative
T1 construct: His tag; made in house; host or cells: E. coli BL21 (B121 [sic])
T1 sequence (P12367 whole entry): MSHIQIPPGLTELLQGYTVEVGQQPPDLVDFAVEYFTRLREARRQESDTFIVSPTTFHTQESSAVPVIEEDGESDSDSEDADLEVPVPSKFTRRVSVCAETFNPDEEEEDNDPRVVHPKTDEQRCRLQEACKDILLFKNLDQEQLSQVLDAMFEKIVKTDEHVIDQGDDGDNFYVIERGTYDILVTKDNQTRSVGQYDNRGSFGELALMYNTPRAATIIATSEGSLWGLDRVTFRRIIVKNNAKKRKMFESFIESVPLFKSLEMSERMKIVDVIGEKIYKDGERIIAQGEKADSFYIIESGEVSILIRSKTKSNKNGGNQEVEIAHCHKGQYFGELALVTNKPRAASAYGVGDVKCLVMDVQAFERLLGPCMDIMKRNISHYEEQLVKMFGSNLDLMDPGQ
Method: Fluorescence Polarization. FITC-labeled peptides (SynPep, San Diego) that were used for fluorescence polarization studies included MEME3 (LEQYANQLADQIIKEATEK(5-Carboxyfluorescein)-CONH2) and MEME3 scrambled peptide (IEKELAQQYQNADAITLEK(5-Carboxyfluorescein)-CONH2). Peptides (0.5 nM for RI experiments and 1 nM for RII experiments) were suspended to working dilutions in phosphate-buffered saline containing 5 μg/μl BSA, pH 7.0. Increasing concentrations of recombinant bovine RI wt or recombinant murine RII were added to a PBS solution and mixed with each FITC-labeled peptide. Each sample was incubated for 2.5 hours. Fluorescence polarization was measured on a Beacon 2000 (Panvera, Madison, Wis.), following the manufacturer's instructions. Saturation binding curves were generated with PRISM graphing software (GraphPad, San Diego). Dissociation constants (Kd) were calculated from the nonlinear regression curve from averages of minimum three individual experiments.
Protein expression and purification. Human RI, Bovine RI and N-terminal deletions thereof or murine RII was expressed in E. coli B121 by IPTG induction. The RI containing pellet was incubated in lysis buffer (10 mM MOPS, pH 6.5, 100 mM NaCl, 10 μM DTT added protease inhibitors) and sonicated (Branson Sonifier 250) for 1 minute in three intervals at 0° C. […]

[4] = target: T2, RII (Mus musculus, UniProt P12367); experiment: R-overlay (solid-phase binding) of 32P-labelled RII on membrane-synthesized peptides; parameters: species or system murine
T2 construct: His tag; made in house; host or cells: E. coli BL21 (B121 [sic])
T2 sequence (P12367 whole entry): as above
Method: Autospot Peptide Array. Peptide arrays were synthesized on cellulose paper by using an Autospot Robot ASP222 (ABiMED, Langenfeld, Germany) as described (Frank, R., 1992, Tetrahedron 48, 123-132) or Multipep automated peptide synthesizer (INTAVIS Bioanalytical Instruments AG, Koeln, Germany) as described (Frank, R., 1992, Tetrahedron 48, 123-132).
R-overlay. R-overlays were conducted as described, using ^32P-labeled recombinant murine RII (Hausken, Z. E., et al., 1998 in Protein Targeting Protocols, ed. Clegg, R. A. (Humana, Totowa, N.J.), Vol. 88, pp. 47-64) or recombinant bovine RI (A98S) or by cold RI-overlay where bound RIα was detected by Western blot. Cold RI-overlay was performed by incubating the membranes with 250 nM RI overnight at 4° C., then the membranes were washed five times in TBST for 5 min. Detection of RI was performed using an anti-RI rabbit polyclonal antibody (Santa Cruz) at a concentration of 0.2 μg/μl for 1 hour at 4° C. Then the membranes were washed five times for 5 minutes in PBS followed by incubation with HRP-conjugated anti-rabbit IgGs (1:5000) for 1 hour at 4° C. […]
Densitometric analysis. The densitometric analysis was performed using Scion Image (www.scioncorp.com) (Scion Coorperation, Mo., USA) or Quantity One version 4.5.0, (BioRad).

## LEQYANQLADQIIKEATERRRRRRRRRrr [MEME3-Arg11]
[1]
  T cell responses to anti-CD3 ([3H]-thymidine) compared to infected, control-treated mice: significant increase (p=0.013); also recorded: increased more than three-fold
[2]
  displacement of RI from T cell membranes / cell periphery: Displacement of RI from T cell membranes was observed; also recorded: displaced and delocalized

## IEKELAQQYQNADAITLE [SM3, scrambled MEME3 negative control peptide, reference compound]
[3]
  interaction with RII subunit: did not interact with either R subunit

## CC[C@H](C)[C@H](NC(=O)[C@H](CCC(N)=O)NC(=O)[C@H](CC(=O)O)NC(=O)[C@H](C)NC(=O)[C@H](CC(C)C)NC(=O)[C@H](CCC(N)=O)NC(=O)[C@H](CC(N)=O)NC(=O)[C@H](C)NC(=O)[C@H](Cc1ccc(O)cc1)NC(=O)[C@H](CCC(N)=O)NC(=O)[C@H](CCC(=O)O)NC(=O)[C@@H](N)CC(C)C)C(=O)N[C@H](C(=O)N[C@@H](CCCCN)C(=O)N[C@@H](CCC(=O)O)C(=O)N[C@@H](C)C(=O)N[C@H](C(=O)N[C@@H](CCC(=O)O)C(=O)N[C@@H](CCCCNC(=O)c1ccc2c(c1)C(=O)OC21c2ccc(O)cc2Oc2cc(O)ccc21)C(N)=O)[C@@H](C)O)[C@@H](C)CC [MEME3]
[4]; densitometry of autoradiographs, lower
  affinity for RII compared to PDSM: 0.5 times
[4]; up to 100 μM peptide in solution
  competition of RII binding to an RII specific binding sequence: not able to compete the RII binding
